Patent US8927541B2, “Tricyclic antibiotics” (Basilea Pharmaceutica AG, priority 2009, dated 2015)

tested on: Streptococcus pneumoniae ATCC49619; assay: Antimicrobial activity assay, MIC by broth microdilution (CAMHB with 5% horse serum); format: cell-based; details: 35° C., 20 to 24 h
Method: (§1) The antibacterial activity of compounds is determined by the minimal inhibitory concentration (MIC) method. MICs for all bacteria except pneumococci and Haemophilus influenzae are obtained by broth microdilution with cation-adjusted Mueller-Hinton broth (CAMHB; BBL), according to CLSI guidelines (National Committee for Clinical Laboratory Standards. 2003. Methods for dilution antimicrobial susceptibility tests for bacteria that grow aerobically, 5th ed.; a approved standard M7-A6. National Committee for Clinical Laboratory Standards, Wayne, Pa.), with the following modifications: (i) for pneumococci CAMHB is supplemented with 5% (^v/v) horse serum; (ii) for Haemophilus influenzae CAMHB is supplemented with 5% (^v/v) Fildes enrichment (BBL) (Pankuch, G. A., Hoellman, D. B., Lin, G., Bajaksouzian, S., Jacobs, M. R., and Appelbaum, P. C. 1998. Activity of HMR 3647 compared to those of five agents against Haemophilus influenzae and Moraxella catarrhalis by MIC determination and time-kill assay. Antimicrob. Agents Chemother. 42:3032-3034). Microtiter plates are incubated at 35° C. in ambient air for 20 to 24 h, then inspected using an illuminated microtiter plate reader fitted with a magnifying mirror (MIC 2000; Cooke Laboratory Products, Alexandria, Va.). Compounds of the present invention are tested against several bacteria strains comprising some Acinetobacter baumannii, Enterococcus faecalis, Enterococcus faecium, Escherichia coli, Haemophilus influenzae, Klebsiella pneumoniae, Pseudomonas aeruginosa, Staphylococcus aureus, Staphylococcus epidermidis, Streptococcus pyogenes; Enterobacter aerogenes; Enterobacter cloacae and Streptococcus pneumoniae. All exemplified compounds have a MIC values for Staphylococcus aureus ATCC29213, Staphylococcus epidermidis ATCC14990 and Streptococcus pneumoniae ATCC49619 lower or equal to 8 mg/L except examples 25 and 56 for Staphylococcus epidermidis ATCC14990 and examples 20, 49, 51, 56, 58, 60, 66 and 76 for Streptococcus pneumoniae ATCC4961.

MIC	SMILES
> 8 µg/mL	COc1ccc2ncc3c(c2n1)OC([C@H]1CC[C@H](NC(=O)c2ccc4c(c2)NC(=O)CS4)CC1)CN3C (relative stereo) [Example 49, 3-oxo-3,4-dihydro-2H-benzo[1,4]thiazine-6-carboxylic acid [trans-4-(6-methoxy-1-methyl-2,3-dihydro-1H-4-oxa-1,5,9-triaza-phenanthren-3-yl)-cyclohexyl]-amide]
> 8 µg/mL	COc1ccc2ncc3c(c2n1)CC([C@H]1CC[C@H](NC(=O)c2ccc4c(c2)NC(=O)CS4)CC1)CN3 (relative stereo) [Example 76, 3-oxo-3,4-dihydro-2H-benzo[1,4]thiazine-6-carboxylic acid [trans-4-(6-methoxy-1,2,3,4-tetrahydro-1,5,9-triaza-phenanthren-3-yl)-cyclohexyl]-amide]
> 8 µg/mL	COc1ccc2ncc3c(c2c1)CC(n1cc(NCCSc2cccs2)cn1)CO3 (stereo not drawn) [Example 20, [1-(6-methoxy-3,4-dihydro-2H-1-oxa-9-aza-phenanthren-3-yl)-1H-pyrazol-4-yl]-[2-(thiophen-2-ylsulfanyl)-ethyl]-amine]

tested on: Escherichia coli ATCC2592; assay: Antimicrobial activity assay, MIC by broth microdilution; format: cell-based; details: 35° C., 20 to 24 h
Method: as §1

SMILES	MIC
COc1ccc2ncc3c(c2n1)N(C)C(c1ccc(NC(=O)c2ccc4c(c2)NC(=O)CS4)cn1)CO3 (stereo not drawn) [Example 27, 3-oxo-3,4-dihydro-2H-benzo[1,4]thiazine-6-carboxylic acid [6-(6-methoxy-4-methyl-3,4-dihydro-2H-1-oxa-4,5,9-triaza-phenanthren-3-yl)-pyridin-3-yl]-amide]	≤ 8 µg/mL
COc1ccc2ncc3c(c2c1)CC(N1CCC(NCc2ccc4c(c2)NC(=O)CO4)CC1)CS3 (stereo not drawn) [Example 3, 6-{[1-(6-methoxy-3,4-dihydro-2H-1-thia-9-aza-phenanthrene-3-yl)-piperidin-4-ylamino]-methyl}-4H-benzo[1,4]oxazin-3-one]	≤ 8 µg/mL
COc1ccc2ncc3c(c2n1)NC([C@H]1CC[C@H](NC(=O)c2ccc4c(c2)NC(=O)CO4)CC1)CO3 (relative stereo) [Example 35, 3-oxo-3,4-dihydro-2H-benzo[1,4]oxazine-6-carboxylic acid [trans-4-(6-methoxy-3,4-dihydro-2H-1-oxa-4,5,9-triaza-phenanthren-3-yl)-cyclohexyl]-amide]	≤ 8 µg/mL

Now from value to compound:

MIC	SMILES
≤ 8 µg/mL	COc1ccc2ncc3c(c2c1)CC(N1CCC(NC(=O)c2ccc4c(c2)NC(=O)CS4)CC1)CO3 (stereo not drawn) [Example 1, 3-oxo-3,4-dihydro-2H-benzo[1,4]thiazine-6-carboxylic acid [1-(6-methoxy-3,4-dihydro-2H-1-oxa-9-aza-phenanthrene-3-yl)-piperidin-4-yl]-amide]
≤ 8 µg/mL	COc1ccc2ncc3c(c2c1)CC(N1CCC(NCc2ccc4c(c2)NC(=O)CS4)CC1)CO3 (stereo not drawn) [Example 2, 6-{[1-(6-methoxy-3,4-dihydro-2H-1-oxa-9-aza-phenanthrene-3-yl)-piperidin-4-ylamino]-methyl}-4H-benzo[1,4]thiazine-3-one]
≤ 8 µg/mL	COc1ccc2ncc3c(c2c1)CC(n1cc(NC(=O)c2ccc4c(c2)NC(=O)CS4)cn1)CO3 (stereo not drawn) [Example 4, 3-oxo-3,4-dihydro-2H-benzo[1,4]thiazine-6-carboxylic acid [1-(6-methoxy-3,4-dihydro-2H-1-oxa-9-aza-phenanthrene-3-yl)-1H-pyrazol-4-yl]-amide]

tested on: Staphylococcus aureus and/or Staphylococcus epidermidis and/or Streptococcus pneumoniae; assay: MIC, summary statement for staphylococci and pneumococci; format: cell-based; details: 'generally'
Method: (§2) The antibacterial activity of compounds is determined by the minimal inhibitory concentration (MIC) method. MICs for all bacteria except pneumococci and Haemophilus influenzae are obtained by broth microdilution with cation-adjusted Mueller-Hinton broth (CAMHB; BBL), according to CLSI guidelines (National Committee for Clinical Laboratory Standards. 2003. Methods for dilution antimicrobial susceptibility tests for bacteria that grow aerobically, 5th ed.; a approved standard M7-A6. National Committee for Clinical Laboratory Standards, Wayne, Pa.), with the following modifications: (i) for pneumococci CAMHB is supplemented with 5% (^v/v) horse serum; (ii) for Haemophilus influenzae CAMHB is supplemented with 5% (^v/v) Fildes enrichment (BBL) (Pankuch, G. A., Hoellman, D. B., Lin, G., Bajaksouzian, S., Jacobs, M. R., and Appelbaum, P. C. 1998. Activity of HMR 3647 compared to those of five agents against Haemophilus influenzae and Moraxella catarrhalis by MIC determination and time-kill assay. Antimicrob. Agents Chemother. 42:3032-3034). Microtiter plates are incubated at 35° C. in ambient air for 20 to 24 h, then inspected using an illuminated microtiter plate reader fitted with a magnifying mirror (MIC 2000; Cooke Laboratory Products, Alexandria, Va.). […]

MIC	SMILES
≤ 8 µg/mL	O=C1CSc2ccc(C(=O)N[C@H]3CC[C@H](C4COc5cnc6ccccc6c5C4)CC3)cc2N1 (relative stereo) [Example 50, 3-oxo-3,4-dihydro-2H-benzo[1,4]thiazine-6-carboxylic acid [trans-4-(3,4-dihydro-2H-1-oxa-9-aza-phenanthren-3-yl)-cyclohexyl]-amide]

tested on: Staphylococcus aureus and/or Staphylococcus epidermidis and/or Streptococcus pneumoniae and/or Escherichia coli; assay: MIC, summary statement for staphylococci, pneumococci and E. coli; format: cell-based; details: 'generally'
Method: as §2

MIC	SMILES
≤ 8 µg/mL	COc1ccc2ncc3c(c2n1)N(C)C(c1ccc(NC(=O)c2ccc4c(c2)NC(=O)CS4)cn1)CO3 (stereo not drawn) [Example 27, 3-oxo-3,4-dihydro-2H-benzo[1,4]thiazine-6-carboxylic acid [6-(6-methoxy-4-methyl-3,4-dihydro-2H-1-oxa-4,5,9-triaza-phenanthren-3-yl)-pyridin-3-yl]-amide]
≤ 8 µg/mL	COc1ccc2ncc3c(c2n1)NC([C@H]1CC[C@H](NC(=O)c2ccc4c(c2)NC(=O)CO4)CC1)CO3 (relative stereo) [Example 35, 3-oxo-3,4-dihydro-2H-benzo[1,4]oxazine-6-carboxylic acid [trans-4-(6-methoxy-3,4-dihydro-2H-1-oxa-4,5,9-triaza-phenanthren-3-yl)-cyclohexyl]-amide]
